Results on eleven molecules are retold here after PubChem BioAssay AID180 (DTP/NCI, 2004).

Each structure is given as a SMILES string. Several values for one entry are separate records, joined by “and”; a condition that tells them apart may be missing. Equal entries are not always repeated.

The assay deals with BDF1 mice, Adenocarcinoma 755 s.c., tumor weight T/C. The assay can be described thus: NCI In Vivo Anticancer Drug Screen. Data for tumor model Adenocarcinoma 755 (subcutaneous) in B6D2F1 (BDF1) mice. The conditions noted are these: endpoint: mean tumor weight, higher = larger tumour. In a few lines:
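Values express treated (T) relative to vehicle-dosed control (C) animals, based on survival or tumour size measured after compound treatment of mice bearing a transplanted tumour.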

[1] abbreviates: dose: 10.0 mg/kg/injection, schedule: Q01DX011 (ip), vehicle: carboxymethylcellulose (CMC).
Where [2] appears, read: dose: 31.0 mg/kg/injection, schedule: Q01DX011 (ip), vehicle: methylcellulose (MC).
The mark [3] stands for this setting: dose: 62.0 mg/kg/injection, schedule: Q01DX011 (ip), vehicle: methylcellulose (MC).
The mark [4] stands for this setting: dose: 125.0 mg/kg/injection, schedule: Q01DX011 (ip), vehicle: methylcellulose (MC).
Setting [5] is: dose: 250.0 mg/kg/injection, schedule: Q01DX011 (ip), vehicle: methylcellulose (MC).

For orientation: T/C means the result in the treated group divided by that in the control group, in per cent. On to `C[C@]12CC[C@H](O)C[C@H]1CC[C@@H]1[C@@H]2CC[C@]2(C)[C@@H](C3=CC(=O)OC3)CC[C@]12O`, for which the T/C was 72 % of control (dose: 5.0 mg/kg/injection, schedule: Q01DX011 (ip), vehicle: carboxymethylcellulose (CMC)); 67 % of control under setting [1]; 49 % of control (dose: 25.0 mg/kg/injection, schedule: Q01DX011 (ip), vehicle: carboxymethylcellulose (CMC)).
On to `CCCCN(C)N=Nc1ccc(C(=O)OCC)cc1`, for which the T/C is, setting by setting: (dose: 125.0 mg/kg/injection, schedule: Q01DX011 (ip), vehicle: other) 37 % of control; (dose: 200.0 mg/kg/injection, schedule: Q01DX011 (ip), vehicle: other) 31 % of control.
For the molecule `CCCSc1ncnc2nc[nH]c12`, the T/C is 73 % of control (dose: 0.12 mg/kg/injection, schedule: Q#A X022 (ip), vehicle: alcohol); 46 % of control (dose: 0.25 mg/kg/injection, schedule: Q#A X022 (ip), vehicle: alcohol); 80 % of control (dose: 0.5 mg/kg/injection, schedule: Q01DX011 (ip), vehicle: alcohol); 111 % of control (dose: 1.0 mg/kg/injection, schedule: Q01DX006 (iv), vehicle: alcohol); 82 % of control (dose: 1.0 mg/kg/injection, schedule: Q01DX011 (im), vehicle: alcohol); 55 % of control (dose: 1.0 mg/kg/injection, schedule: Q01DX011 (ip), vehicle: alcohol). The T/C is 44 % of control (dose: 1.0 mg/kg/injection, schedule: Q01DX011 (oral), vehicle: alcohol); 98 % of control (dose: 1.0 mg/kg/injection, schedule: Q01DX011 (sc), vehicle: alcohol); 56 % of control (dose: 1.0 mg/kg/injection, schedule: Q03DX004 (ip), vehicle: alcohol); 24 % of control (dose: 2.5 mg/kg/injection, schedule: Q01DX011 (ip), vehicle: alcohol); 7 % of control (dose: 2.5 mg/kg/injection, schedule: Q#A X022 (ip), vehicle: alcohol); 15 % of control (dose: 3.0 mg/kg/injection, schedule: Q01DX011 (oral), vehicle: alcohol). Further, the T/C by setting is: (dose: 3.0 mg/kg/injection, schedule: Q03DX004 (ip), vehicle: alcohol) 85 % of control; (dose: 3.0 mg/kg/injection, schedule: Q07DX002 (ip), vehicle: alcohol) 53 % of control; (dose: 5.0 mg/kg/injection, schedule: Q01DX006 (iv), vehicle: alcohol) 16 % of control; (dose: 5.0 mg/kg/injection, schedule: Q01DX011 (im), vehicle: alcohol) 9 % of control; (dose: 5.0 mg/kg/injection, schedule: Q01DX011 (ip), vehicle: alcohol) 3 % of control; (dose: 5.0 mg/kg/injection, schedule: Q01DX011 (sc), vehicle: alcohol) 5 % of control. The T/C by setting is: (dose: 5.0 mg/kg/injection, schedule: Q#A X022 (ip), vehicle: alcohol) 3 % of control; (dose: 6.0 mg/kg/injection, schedule: Q01DX011 (oral), vehicle: alcohol) 4 % of control; (dose: 6.0 mg/kg/injection, schedule: Q03DX004 (ip), vehicle: alcohol) 74 % of control; (dose: 6.0 mg/kg/injection, schedule: Q07DX002 (ip), vehicle: alcohol) 20 % of control; (dose: 10.0 mg/kg/injection, schedule: Q01DX006 (iv), vehicle: alcohol) 10 % of control; (dose: 10.0 mg/kg/injection, schedule: Q01DX011 (ip), vehicle: alcohol) 4 % of control. The T/C reads like this: (dose: 10.0 mg/kg/injection, schedule: Q01DX011 (sc), vehicle: alcohol) 4 % of control; (dose: 10.0 mg/kg/injection, schedule: Q#A X022 (ip), vehicle: alcohol) 4 % of control; (dose: 12.0 mg/kg/injection, schedule: Q01DX001 (ip), vehicle: alcohol) 62 % of control; (dose: 12.0 mg/kg/injection, schedule: Q01DX011 (oral), vehicle: alcohol) 4 % of control; (dose: 12.0 mg/kg/injection, schedule: Q03DX004 (ip), vehicle: alcohol) 26 % of control; (dose: 12.0 mg/kg/injection, schedule: Q07DX002 (ip), vehicle: alcohol) 36 % of control. The T/C reads like this: (dose: 20.0 mg/kg/injection, schedule: Q01DX006 (iv), vehicle: alcohol) 1 % of control; (dose: 20.0 mg/kg/injection, schedule: Q01DX011 (ip), vehicle: alcohol) 2 % of control; (dose: 20.0 mg/kg/injection, schedule: Q01DX011 (sc), vehicle: alcohol) 6 % of control; (dose: 25.0 mg/kg/injection, schedule: Q01DX001 (ip), vehicle: alcohol) 49 % of control; (dose: 25.0 mg/kg/injection, schedule: Q03DX004 (ip), vehicle: alcohol) 5 % of control; (dose: 25.0 mg/kg/injection, schedule: Q07DX002 (ip), vehicle: alcohol) 12 % of control. Further, the T/C was 3 % of control (dose: 30.0 mg/kg/injection, schedule: Q01DX011 (ip), vehicle: alcohol); 16 % of control (dose: 50.0 mg/kg/injection, schedule: Q03DX004 (ip), vehicle: alcohol); 16 % of control (dose: 50.0 mg/kg/injection, schedule: Q07DX002 (ip), vehicle: alcohol); 35 % of control and 51 % of control (dose: 100.0 mg/kg/injection, schedule: Q01DX001 (ip), vehicle: alcohol); 3 % of control (dose: 100.0 mg/kg/injection, schedule: Q03DX004 (ip), vehicle: alcohol); 17 % of control (dose: 100.0 mg/kg/injection, schedule: Q07DX002 (ip), vehicle: alcohol). Besides, the T/C by setting is: (dose: 150.0 mg/kg/injection, schedule: Q01DX001 (ip), vehicle: alcohol) 21 % of control and 34 % of control; (dose: 150.0 mg/kg/injection, schedule: Q03DX004 (ip), vehicle: alcohol) 5 % of control; (dose: 150.0 mg/kg/injection, schedule: Q07DX002 (ip), vehicle: alcohol) 5 % of control; (dose: 200.0 mg/kg/injection, schedule: Q07DX002 (ip), vehicle: alcohol) 5 % of control.
In the case of `COC1CC(OS(C)(=O)=O)C(COS(C)(=O)=O)O1` (stereo unspecified), the T/C (dose: 25.0 mg/kg/injection, schedule: Q01DX011 (ip), vehicle: saline) was 120 % of control; the T/C (dose: 75.0 mg/kg/injection, schedule: Q01DX011 (ip), vehicle: saline) is 117 % of control; the T/C (dose: 225.0 mg/kg/injection, schedule: Q01DX011 (ip), vehicle: saline) is 104 % of control.
Consider `CC(=O)N(C(C)C)C(C)C`, for which the T/C reads like this: (dose: 5.0 mg/kg/injection, schedule: Q01DX011 (ip), vehicle: other) 95 % of control; (dose: 10.0 mg/kg/injection, schedule: Q01DX011 (ip), vehicle: other) 91 % of control.
`Cc1cc(NC(=O)c2ccc(C(=O)Nc3ccc(N=Nc4cc(S(=O)(=O)O)c5cccc(S(=O)(=O)O)c5c4)c(C)c3)cc2)ccc1N=Nc1cc(S(=O)(=O)O)c2cccc(S(=O)(=O)O)c2c1`: under “dose: 30.0 mg/kg/injection, schedule: Q01DX011 (ip), vehicle: carboxymethylcellulose (CMC)”, the T/C was 114 % of control.
`O=C(O)C(O)C(O)C(O)C(O)CO.O=C(O)C(O)C(O)C(O)C(O)CO.O=C(O)C(O)C(O)C(O)C(O)CO.[Ga]` (stereo unspecified): the T/C reads like this: under setting [1], 72 % of control; (dose: 20.0 mg/kg/injection, schedule: Q01DX011 (ip), vehicle: carboxymethylcellulose (CMC)) 64 % of control; (dose: 40.0 mg/kg/injection, schedule: Q01DX011 (ip), vehicle: carboxymethylcellulose (CMC)) 25 % of control; (dose: 80.0 mg/kg/injection, schedule: Q01DX011 (ip), vehicle: carboxymethylcellulose (CMC)) 10 % of control.
Regarding `CC1(C)OC2C(CO)OC(n3cnc4c(SCc5ccccc5)ncnc43)C2O1` (stereo unspecified), the T/C is, setting by setting: under setting [2], 79 % of control; under setting [3], 59 % of control; under setting [4], 50 % of control.
Take `O=C(CCBr)NCCCCCCNC(=O)CCBr`: the T/C (dose: 56.0 mg/kg/injection, schedule: Q01DX011 (ip), vehicle: methylcellulose (MC)) is 114 % of control; the T/C (dose: 113.0 mg/kg/injection, schedule: Q01DX011 (ip), vehicle: methylcellulose (MC)) is 67 % of control; the T/C (dose: 225.0 mg/kg/injection, schedule: Q01DX011 (ip), vehicle: methylcellulose (MC)) was 114 % of control.
On to `Cc1cc(Nc2ccc(CCO)cc2)nc(N)n1`, for which the T/C (dose: 15.0 mg/kg/injection, schedule: Q01DX011 (ip), vehicle: methylcellulose (MC)) is 64 % of control; the T/C under setting [2] is 75 % of control; the T/C under setting [3] is 77 % of control; the T/C under setting [4] is 85 % of control; the T/C under setting [5] is 73 % of control.
On to `Nc1nc(-c2cccnc2)nc(N)c1N=O`, for which the T/C was 120 % of control under setting [2], 166 % of control under setting [3], 119 % of control under setting [4] and 81 % of control under setting [5].
